The results in this text go back to the supplement of paper PMC10307832.

Experiment in all cases: relative viability (nuclei count vs DMSO), 5 days (fraction); higher = more cells survive
Compound in the assay “Metformin + Foretinib”: CN(C)C(=N)NC(=N)N [Metformin] + COc1cc2c(Oc3ccc(NC(=O)C4(C(=O)Nc5ccc(F)cc5)CC4)cc3F)ccnc2cc1OCCCN1CCOCC1 [Foretinib] (partner 0.25 µM)
Put shortly: (§1)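 Lung cancer cell lines in 1536-well plates got either a single drug or a fixed anchor-drug dose together with five library-drug doses (not always all listed) in √10 steps, by pin tool, on the day after seeding. Nuclei were counted after 5 days, and relative viability is the treated-to-vehicle ratio of nuclei counts. Values are medians of duplicate plates.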

Compound in the assay “Metformin + Tozasertib”: CN(C)C(=N)NC(=N)N [Metformin] + Cc1cc(Nc2cc(N3CCN(C)CC3)nc(Sc3ccc(NC(=O)C4CC4)cc3)n2)n[nH]1 [Tozasertib] (partner 0.1 µM)
Put shortly: as §1

Compound in the assay “Apatinib + Trametinib”: N#CC1(c2ccc(NC(=O)c3cccnc3NCc3ccncc3)cc2)CCCC1 [Apatinib] + CC(=O)Nc1cccc(-n2c(=O)n(C3CC3)c(=O)c3c(Nc4ccc(I)cc4F)n(C)c(=O)c(C)c32)c1 [Trametinib] (partner 0.02 µM)
In outline: as §1

Compound in the assay “Apatinib + Vorinostat”: N#CC1(c2ccc(NC(=O)c3cccnc3NCc3ccncc3)cc2)CCCC1 [Apatinib] + O=C(CCCCCCC(=O)Nc1ccccc1)NO [Vorinostat] (partner 1 µM)
Put shortly:
as §1

In the case of NCI-H460, the relative viability with Metformin + Foretinib (first compound 10 µM) was determined as 0.949; with Metformin + Foretinib (first compound 31.62 µM), 0.998; with Metformin + Foretinib (first compound 100 µM), 0.961; with Metformin + Foretinib (first compound 316.23 µM) it was 1.02; in the assay with Metformin + Foretinib (first compound 1000 µM), 1.03; with Metformin + Tozasertib (first compound 31.62 µM), 0.59. In addition, the relative viability with Metformin + Tozasertib (first compound 100 µM) was found to be 0.645; with Metformin + Tozasertib (first compound 316.23 µM) it was 0.187; with Metformin + Tozasertib (first compound 1000 µM), 0.734; with Apatinib + Trametinib (first compound 0.08 µM), 0.119; in the assay with Apatinib + Trametinib (first compound 0.253 µM), 0.172; with Apatinib + Trametinib (first compound 0.8 µM), 0.223. Besides, the relative viability is 0.134 with Apatinib + Trametinib (first compound 2.53 µM); 0.128 with Apatinib + Trametinib (first compound 8 µM); 0.741 with Apatinib + Vorinostat (first compound 0.08 µM); 0.73 with Apatinib + Vorinostat (first compound 0.253 µM); 0.623 with Apatinib + Vorinostat (first compound 0.8 µM); 0.577 in the assay with Apatinib + Vorinostat (first compound 2.53 µM). In addition, the relative viability with Apatinib + Vorinostat (first compound 8 µM) was determined as 0.417.
